Literature values in US20110290119A1, “ANTIMICROBIAL ELECTRET WEB” (3M Innovative Properties Company, priority 2009, published 2011).

Test system: Ps. aeruginosa (gram negative)
Details: known

O=C1OC2(c3cc(I)c(O)c(I)c3Oc3c2cc(I)c(O)c3I)c2c(Cl)c(Cl)c(Cl)c(Cl)c21 [rose bengal, 4,5,6,7-Tetrachloro-3′,6′-dihydroxy-2′,4′,5′,7′-tetraiodo-3H-spiro[isobenzofuran-1,9′-xanthen]-3-one]
microbial load reduction: not particularly effective
